# Results published in patent publication US9682928B2 (NeuroPro Therapeutics, Inc., priority 2009, dated 2017).
# What was measured:
# mouse [1] = details: literature data; cited from earlier work
# rats = assay: Fear potentiated startle (FPS) test in rats; type: in vivo, rat; details: i.v.; furosemide 100 mg/kg, bumetanide 70 mg/kg
# Description: FPS is a commonly used assessment of therapeutic value of anxiolytic compounds in the rat. Rats received a 30 min period of habituation to the FPS apparatus. 24-hr later baseline startle amplitudes were collected. The rats will be divided into two matched groups based on baseline startle amplitudes. Following baseline startle amplitude collection 20 light/shock pairings were delivered on 2 sessions over 2 consecutive days (i.e., 10 light/shock pairings per day). On the final day, one group of rats received an injection (i.v.) of a bumetanide analog and the other group received vehicle only. Immediately following injections, startle amplitudes were assessed during startle alone trials and startle plus fear (light followed by startle) trials. Fear potentiated startle (light+startle amplitudes minus startle alone amplitudes) was compared between the treatment groups.
# Animals were trained and tested in four identical stabilimeter devices (Med-Associates). Briefly, each rat was placed in a small Plexiglas cylinder. The floor of each stabilimeter consists of four 6-mm-diameter stainless steel bars spaced 18 mm apart through which shock can be delivered. Cylinder movements result in displacement of an accelerometer where the resultant voltage is proportional to the velocity of the cage displacement. Startle amplitude is defined as the maximum accelerometer voltage that occurs during the first 0.25 sec after the startle stimulus is delivered. The analog output of the accelerometer is amplified, digitized on a scale of 0-4096 units and stored on a microcomputer. Each stabilimeter is enclosed in a ventilated, light-, and sound-attenuating box. All sound level measurements were made with a Precision Sound Level Meter. The noise of a ventilating fan attached to a sidewall of each wooden box produces an overall background noise level of 64 dB. The startle stimulus is a 50 ms burst of white noise (5 ms rise-decay time) generated by a white noise generator. The visual conditioned stimulus used was illumination of a light bulb adjacent to the white noise source. The unconditioned stimulus was a 0.6 mA foot shock with duration of 0.5 sec, generated by four constant-current shockers located outside the chamber. The presentation and sequencing of all stimuli were under the control of the microcomputer.
# FPS procedures consisted of 5 days of testing; during days 1 and 2 baseline startle responses were collected, days 3 and 4 light/shock pairings were delivered, day 5-testing for fear potentiated startle was conducted.
# Matching. On the first two days all rats were placed in the Plexiglas cylinders and 3 min later presented with 30 startle stimuli at a 30 sec interstimulus interval. An intensity of 105 dB was used. […]
# mouse [2] = assay: Formalin test (acute/early and late phase) in mice; type: in vivo
# Description: The formalin test was performed according to the method of Tjølsen, et al. (October 1992) “The formalin test: an evaluation of the method.” Pain 51(1): 5-17. An injection of 0.5% formalin is made into the plantar region of the right hind paw of a mouse. This elicits a distinct behavioral profile in response to the formalin injection characterized by the mouse licking the affected paw. The behavior is characteristically biphasic in nature. For example, immediately following the injection the mouse intensely licks the paw for approximately 5-10 minutes (“min.”) This initial behavior was considered phase 1 (acute) and is thought to be mediated primarily by chemical activation of local C-fibers. The acute phase is followed by a brief latent (usually <5 min) period where there is little or no behavioral activity. A more prolonged (about 20 to 30 min) period of licking then ensues which constitutes phase 2 of the response (late phase). See e.g., Tjølsen, et al. (Feb. 7, 1991) “Antinociceptive effect of paracetamol in rats is partly dependent on spinal serotonergic systems. Eur J Pharmacol. 193(2): 193-201 and Tjølsen, et al. (June 1991) Lesions of bulbo-spinal serotonergic or noradrenergic pathways reduce nociception as measured by the formalin test. Acta Physiol Scand. 142(2): 229-36, the disclosures of each of which are hereby incorporated by reference in its entirety.
# It is in these tubes that mice are later observed for the licking activity for the duration of the experiment. Following the conditioning, the test substance was administered i.p. in a dose equivalent to the MES ED50 and the mouse returned to its home tube. At the TPE of the drug, the formalin is injected subdermally into the plantar surface of the right hind foot. It is given in a volume of 20 μl with a 27 gauge stainless steel needle attached to a Hamilton syringe. The bevel of the needle was placed facing down toward the skin surface. […] The cumulative length of licking for each 2-min time period was measured. […] Animals are euthanized following the conclusion of the experiment.
# Area under the curve (AUC) and subsequent percent of control for drug-treated animal groups is determined using the GraphPad Prism Version 3.03. Total AUC was calculated for both the test and control groups for both the acute and inflammatory phases. The AUC for individual animals for each phase was also calculated and converted to percentage of total AUC of control. The average and S.E.M. for both the drug treated and control percentages were calculated and tested for significant difference.
structure (smiles),measurement,setting,value
"CCCCNc1cc(C(=O)O)cc(S(N)(=O)=O)c1Oc1ccccc1 [Bumetanide, reference compound]",Activity in early phase formalin paw test,mouse [1],has little
same,Activity in late phase formalin paw test,mouse [1],is active in late phase
same,Difference score on the test day vs vehicle alone,rats,statistically significantly lower difference score
same,Difference score one week after treatment vs vehicle alone,rats,higher difference score
"CCCCNc1cc(C(=O)NN2CCOCC2)cc(S(N)(=O)=O)c1Oc1ccccc1 [NTP-2024, N-Morpholinyl 3-Aminosulfonyl-5-N-butylamino-4-phenoxybenzamide]","Decrease in pain, Formalin Paw Test (Mice) - Late Phase","mouse [2]; 346 μmol/kg, 150 mg/kg, p < 0.01",150 mg/kg; >80%
same,"Decrease in pain, Formalin Paw Test (Mice) - Early Phase","mouse [2]; 346 μmol/kg, 150 mg/kg, p < 0.05",150 mg/kg; ~40%;
same,"% of Control, Acute","mouse [2]; 150 mg/kg i.p., mice",58.55%
same,"% of Control, Late Phase","mouse [2]; 150 mg/kg i.p., mice",12.54%
same,"Treated (AUC of licking time), Acute","mouse [2]; 150 mg/kg i.p., mice",80.03
same,"Treated (AUC of licking time), Late Phase","mouse [2]; 150 mg/kg i.p., mice",76.39
